According to ChEMBL document CHEMBL1126865, “Structure-activity relationship within a series of pyrazolidinone antibacterial agents. 2. Effect of side-chain modification on in vitro activity and pharmacokinetic parameters” (J Med Chem, 1993):
≈ marks a conversion by molar mass, not a printed value.

Tests used:
Assay type in all cases: functional
[1] = tested on: Klebsiella aerogenes; experiment: In vitro antibacterial activity against Enterobacter aerogenes C32
[2] = tested on: Haemophilus influenzae; experiment: In vitro antibacterial activity against Haemophilus influenza C.L
[3] = tested on: Klebsiella pneumoniae; experiment: In vitro antibacterial activity against Klebsiella X26
[4] = tested on: Escherichia coli; experiment: In vitro antibacterial activity against Escherichia coli EC14
[5] = tested on: Staphylococcus aureus; experiment: In vitro antibacterial activity against Staphylococcus aureus X1.1
[6] = tested on: Staphylococcus epidermidis; experiment: In vitro antibacterial activity against Staphylococcus epidermidis 222
[7] = tested on: Streptococcus pneumoniae; experiment: In vitro antibacterial activity against Streptococcus pneumoniae PARK
[8] = tested on: Pseudomonas aeruginosa; experiment: In vitro antibacterial activity against Pseudomonas PS72

| SMILES | MIC [1] | MIC [2] | MIC [3] | MIC [4] | MIC [5] | MIC [6] | MIC [7] | MIC [8] |
| --- | --- | --- | --- | --- | --- | --- | --- | --- |
| N#CC1=C(C(=O)O)N2C(=O)[C@@H](NC(=O)CSc3cc(Cl)ccc3Cl)CN2C1 | > 128 µg/mL | 8 µg/mL (≈ 18.7 µM) | 8 µg/mL (≈ 18.7 µM) | > 128 µg/mL | 1 µg/mL (≈ 2.34 µM) | 4 µg/mL (≈ 9.36 µM) | 0.125 µg/mL (≈ 0.293 µM) | > 128 µg/mL |
| CCCS(=O)(=O)C1=C(C(=O)O)N2C(=O)[C@@H](NC(=O)/C(=N/OCCBr)c3csc(N)n3)CN2C1 | 0.5 µg/mL (≈ 0.884 µM) | 0.125 µg/mL (≈ 0.221 µM) | 0.03 µg/mL (≈ 0.0531 µM) | 0.25 µg/mL (≈ 0.442 µM) | 8 µg/mL (≈ 14.1 µM) | 8 µg/mL (≈ 14.1 µM) | 0.06 µg/mL (≈ 0.106 µM) | > 128 µg/mL |
| N#CC1=C(C(=O)O)N2C(=O)[C@@H](NC(=O)Cc3ccccc3)CN2C1 | 128 µg/mL (≈ 392 µM) | 32 µg/mL (≈ 98.1 µM) | 32 µg/mL (≈ 98.1 µM) | 32 µg/mL (≈ 98.1 µM) | 16 µg/mL (≈ 49 µM) | 32 µg/mL (≈ 98.1 µM) | 8 µg/mL (≈ 24.5 µM) | > 128 µg/mL |
| N#CC1=C(C(=O)O)N2C(=O)[C@@H](NC(=O)/C(=N/OCc3ccccc3)c3csc(N)n3)CN2C1 | 8 µg/mL (≈ 17.1 µM) | 0.25 µg/mL (≈ 0.535 µM) | 0.125 µg/mL (≈ 0.267 µM) | 8 µg/mL (≈ 17.1 µM) | 8 µg/mL (≈ 17.1 µM) | 8 µg/mL (≈ 17.1 µM) | 0.06 µg/mL (≈ 0.128 µM) | > 128 µg/mL |
| N#CC1=C(C(=O)O)N2C(=O)[C@@H](NC(=O)Cn3cnnn3)CN2C1 | > 128 µg/mL | > 128 µg/mL | > 128 µg/mL | > 128 µg/mL | > 128 µg/mL | > 128 µg/mL | > 128 µg/mL | > 128 µg/mL |
| C=CCO/N=C(/C(=O)N[C@H]1CN2CC(S(=O)(=O)CCC)=C(C(=O)O)N2C1=O)c1csc(N)n1 | 0.5 µg/mL (≈ 1 µM) | 0.25 µg/mL (≈ 0.501 µM) | 0.06 µg/mL (≈ 0.12 µM) | 0.5 µg/mL (≈ 1 µM) | 16 µg/mL (≈ 32.1 µM) | 32 µg/mL (≈ 64.2 µM) | 0.06 µg/mL (≈ 0.12 µM) | > 128 µg/mL |
| CCCO/N=C(/C(=O)N[C@H]1CN2CC(S(=O)(=O)CCC)=C(C(=O)O)N2C1=O)c1csc(N)n1 | 1 µg/mL (≈ 2 µM) | 0.5 µg/mL (≈ 0.999 µM) | 0.06 µg/mL (≈ 0.12 µM) | 0.5 µg/mL (≈ 0.999 µM) | 16 µg/mL (≈ 32 µM) | 32 µg/mL (≈ 63.9 µM) | 0.125 µg/mL (≈ 0.25 µM) | > 128 µg/mL |
| CCS(=O)(=O)C1=C(C(=O)O)N2C(=O)[C@@H](NC(=O)/C(=N/OCCCl)c3csc(N)n3)CN2C1 | 0.5 µg/mL (≈ 0.986 µM) | 1 µg/mL (≈ 1.97 µM) | 0.125 µg/mL (≈ 0.247 µM) | 0.25 µg/mL (≈ 0.493 µM) | 16 µg/mL (≈ 31.6 µM) | 32 µg/mL (≈ 63.1 µM) | 0.25 µg/mL (≈ 0.493 µM) | > 128 µg/mL |
| C=CCO/N=C(/C(=O)N[C@H]1CN2CC(S(C)(=O)=O)=C(C(=O)O)N2C1=O)c1csc(N)n1 | 0.25 µg/mL (≈ 0.531 µM) | 0.125 µg/mL (≈ 0.266 µM) | 0.03 µg/mL (≈ 0.0638 µM) | 0.125 µg/mL (≈ 0.266 µM) | 8 µg/mL (≈ 17 µM) | 16 µg/mL (≈ 34 µM) | 0.125 µg/mL (≈ 0.266 µM) | 128 µg/mL (≈ 272 µM) |
| CCCCO/N=C(/C(=O)N[C@H]1CN2CC(S(C)(=O)=O)=C(C(=O)O)N2C1=O)c1csc(N)n1 | 1 µg/mL (≈ 2.06 µM) | 0.125 µg/mL (≈ 0.257 µM) | 0.03 µg/mL (≈ 0.0617 µM) | 0.25 µg/mL (≈ 0.514 µM) | 4 µg/mL (≈ 8.22 µM) | 4 µg/mL (≈ 8.22 µM) | 0.06 µg/mL (≈ 0.123 µM) | > 128 µg/mL |
| CCCS(=O)(=O)C1=C(C(=O)O)N2C(=O)[C@@H](NC(=O)/C(=N/OCC(F)(F)F)c3csc(N)n3)CN2C1 | 1 µg/mL (≈ 1.85 µM) | 0.25 µg/mL (≈ 0.463 µM) | 0.06 µg/mL (≈ 0.111 µM) | 0.25 µg/mL (≈ 0.463 µM) | 16 µg/mL (≈ 29.6 µM) | 32 µg/mL (≈ 59.2 µM) | 0.125 µg/mL (≈ 0.231 µM) | > 128 µg/mL |
| CS(=O)(=O)C1=C(C(=O)O)N2C(=O)[C@@H](NC(=O)/C(=N/OCCF)c3csc(N)n3)CN2C1 | 0.06 µg/mL (≈ 0.126 µM) | 0.25 µg/mL (≈ 0.525 µM) | 0.03 µg/mL (≈ 0.063 µM) | 0.015 µg/mL (≈ 0.0315 µM) | 16 µg/mL (≈ 33.6 µM) | 16 µg/mL (≈ 33.6 µM) | 0.06 µg/mL (≈ 0.126 µM) | 128 µg/mL (≈ 269 µM) |
